# “And” between values parts separate entries of the source, which are not always exact repeats. Equal values may be shown once.
# Key:
# [1] = tested on: Anopheles farauti maxillary palps; assay: Electropalpogram (EPG), non bloodfed females; details: chemicals at 1/10 concentrations, CO2 5%
# [2] = tested on: Anopheles stephensi; assay: Y-tube olfactometer, measurement of activation against clean air; type: in vivo; details: for Activation (against clean air): An. stephensi females
# Procedure: A y-tube olfactometer was used to establish whether the volatile components of human breath elicited behavioural responses in the malaria vector Anopheles stephensi. The MR4 strain of An. stephensi (New Delhi, India) was maintained at 27° C., 70% RH, 12:12 L:D and 30 min dawn/dusk periods). 4 to 7 day old female mosquitoes, that had never received a blood meal, were used in experiments. Mosquitoes were maintained on 10% sugar solution ad libitum but starved for 12 hr prior to testing. The Y tube olfactometer is made entirely of glass and consists of a release chamber, the Y tube itself, and a trap chamber attached to each arm (FIG. 1). Each trap chamber is divided in two by a fine glass filter. On the far side of those filters, the trap chambers can connect to charcoal filters or to gas bags or gas cylinders. Air is pulled through the olfactometer by connecting the release chamber to a vacuum tap which vents the contents of the tube. Standard air flow (0.4 L/minute) is maintained using a 0.1-1.2 LPM flow meter (John Morris Pty, LTD). The air volume of the Y-tube is approximately 1 litre and is therefore replaced every 2.5 minutes. One arm is attached to a gas bag of clean air (from a compressed air cylinder) […]. The other arm remains connected to a carbon filter and the air inlet to give a plume of compressed air plus test stimuli (i.e. standard air concentration of CO2 only). 1 μl 10^−2 to 10^−5% test stimuli in mineral oil (Sigma Aldrich) was spotted on 1 cm^2 Whatman filter paper. Test stimuli was delivered by placing treated filter paper between the air inlet and the trap chamber to give a plume of compressed air plus test stimuli (i.e. standard air concentration of CO2 only). All experiments were run under PC2 quarantine conditions, at 27° C., 70% RH, under infrared light. Observers were always in the same position during the tests, at the trap chamber end of the olfactometer, between the 2 arms of the Y tube. Using an aspirator, 25-30 starved female An. stephensi were introduced into the release chamber (FIG. 1). […] After each test, mosquitoes were carefully aspirated from the apparatus by disconnecting constituent parts. The apparatus was flushed with clean air (charcoal filters only) for 5 minutes before the next batch of stimuli was introduced. A total of 10 replicates (different batches of mosquitoes) were run for each stimuli assessment. Treatment and control arms were alternated between replicates. After completion of 10 replicates, the apparatus was rinsed in acetone and allowed to dry overnight. Initial experiments were therefore less concerned with directional responses and more with establishing the range of doses that appeared to cause some form of excitation. Those initial experiments were conducted in comparison to a neutral control (a negative would be repellent) of clean air drawn through a charcoal filter. The test stimuli were tested against mosquitoes at serial dilutions in the range 10^−2 to 10^−5%. Once mosquitoes had stopped responding, the numbers in the olfactometer arms, base leg and release chamber were counted. Mosquitoes were assumed to have been “activated” if they moved into the Y tube arms.
# [3] = tested on: Anopheles farauti s.l; assay: Field trial with CDC light traps, Anopheles farauti s.l catch; type: in vivo; details: for Anopheles farauti s.l catch numbers: CDC light trap, one night, treatment per Table 3
# Procedure: Field trials based on an imperfect Latin square design compared the attraction of An. farauti to MTPE with and without CO2. Treatments included CO2 alone, CO2 in combination with MTPE lure, or MTPE lure alone. Centres for Disease Control and Prevention (CDC) light traps were used to deliver MTPE lures and/or CO2. MTPE lures consisted of 500 μl of MTPE in mineral oil, 10-100,000 ppm spread on filter paper. MTPE/mineral oil mixtures were spread on filter paper, rolled into a tight wick, and inserted into a specimen tube. Specimen tubes where then wired to a CDC trap. CO2 was delivered using 1 kg dry ice, hung above a CDC light trap, as per standard sampling protocols. MTPE+/−CO2 combinations were randomised between 4 trap positions over three nights. Traps were placed at least 50 m apart to manage interference and were set between 5 pm and 7 am each night. Trap catches were subsequently returned to the laboratory, counted and identified as “Anopheles farauti s.l” or “other”.
# As CO2 is a known mosquito attractant, all catches were compared to CO2 alone.
smiles,measurement,setting,value
"CC=CSC [MTPE, 1-methylthio-1-propene]","EPG response, comparison among tested chemicals",[1],strongest response
same,Concentration of greatest activation response,"[2]; against clean air, tested 10^-2 to 10^-5%",0.0001 % v/v
same,Activation compared with that at 0.0001% v/v,[2]; at lower (0.00001%) and higher (0.001-0.01%) concentrations (v/v),reduced
same,Activation (against clean air),[2]; dilution 0.00001 (10^-5)% in mineral oil,Yes
same,Activation (against clean air),[2]; dilution 0.0001 (10^-4)% in mineral oil,Yes
same,Activation (against clean air),[2]; dilution 0.001 (10^-3)% in mineral oil,Yes
same,Activation (against clean air),[2]; dilution 0.01 (10^-2)% in mineral oil,Yes
same,"Attractancy in field trial, compared to CO2 alone",[3]; 100 ppm,attractive
same,Anopheles farauti s.l catch numbers,[3]; 100 ppm MTPE lure alone,28
same,"Attractancy in field trial, effect of CO2","[3]; 1,000 ppm MTPE with CO2",CO2 synergises attractancy
same,"Attractancy in field trial, compared to CO2 alone","[3]; 10,000 ppm","not attractive, possibly repellent"
same,"Attractancy in field trial, compared to CO2 alone","[3]; 100,000 ppm","not attractive, possibly repellent"
same,Anopheles farauti s.l catch numbers,[3]; CO2 + 1000 ppm MTPE lure,89 and 78 and 63
same,Dose dependence of attractancy in field trial,"[3]; MTPE lures 100-100,000 ppm",Dose dependent attractancy

# Source: patent publication US10701931B2, “Mosquito activating formulations” (Commonwealth Scientific and Industrial Research Organisation, priority 2015, dated 2020)
